Patent US11046691B1 (IDEAYA BIOSCIENCES, INC., priority 2018, dated 2021)
pIC50: −log10 of the molar value.

These molecules were tested against hMAT2A (Homo sapiens (Human), UniProt P31153) (assay: Malachite Green Assay (MAT2A enzyme inhibition)). Details: hMAT2A 50 nM, substrates 500 uM each, 1 hour.
Type: biochemical
Description: The ability of the compound of present disclosure to inhibit MAT2A enzyme was determined using the Malachite Green or Phosphate Sensor Fluorescence Assay described below.
L-methionine Substrate: Alfa Aesar catalog #J61904
ATP Substrate: Alfa Aesar cat #J60336
Malachite Green Detection Reagent: Millipore Sigma catalog #MAK307-1KT
Assay buffer: 50 mM Tris, pH 7.5/50 mM KCl/10 mM MgCl2/0.01% Brij-35/1 mM DTT/0.1% BGG
The plate was centrifuged at 1000 rpm for 1 minute and then incubated at room temperature for 1 hour. 5 μL of malachite green detection reagent was added to all the test wells and the plate was centrifuged at 1000 rpm for 1 minute and then incubated at room temperature for 30 minutes. The plate was read for absorbance at 620 nm on a plate reader (e.g., Infinite M1000).

Chain of hMAT2A (P31153 whole entry): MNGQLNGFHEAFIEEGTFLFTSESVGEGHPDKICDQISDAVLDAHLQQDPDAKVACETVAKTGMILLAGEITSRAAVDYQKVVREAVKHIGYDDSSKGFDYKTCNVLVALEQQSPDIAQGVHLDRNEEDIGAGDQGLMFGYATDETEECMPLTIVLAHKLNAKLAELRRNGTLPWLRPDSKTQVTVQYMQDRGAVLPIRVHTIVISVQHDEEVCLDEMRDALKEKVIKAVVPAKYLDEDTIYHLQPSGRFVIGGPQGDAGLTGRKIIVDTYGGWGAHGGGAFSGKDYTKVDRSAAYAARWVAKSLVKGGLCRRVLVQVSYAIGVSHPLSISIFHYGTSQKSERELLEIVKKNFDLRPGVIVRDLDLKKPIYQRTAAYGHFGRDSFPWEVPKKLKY

Row | Compound | pIC50
1 | O=c1nc(Nc2ccccn2)c2ccc(Cl)cc2n1-c1ccccc1 [Example 32, 7-chloro-1-phenyl-4-(pyridin-2-yl-amino)quinazolin-2(1H)-one] | 6.30 to 6.70
2 | Cc1c(Cl)ccc2c(N(C)C)nc(=O)n(-c3ccccc3)c12 [Example 43, 7-chloro-4-(dimethylamino)-8-methyl-1-phenyl-quinazolin-2(1H)-one] | 5.00 to 6.00
3 | CNc1nc(=O)n(-c2ccccc2)c2cc(Cl)cc(OC)c12 [Example 70, 7-chloro-5-methoxy-4-(methylamino)-1-phenylquinazolin-2(1H)-one] | > 6.70
4 | O=c1nc(N2CCC2)c2ccc(Cl)cc2n1-c1cc(O)cc(F)c1 [Example 38, 4-azetidinyl-7-chloro-1-(5-fluoro-3-hydroxy-phenyl)hydroquinazolin-2-one] | > 6.70
5 | CN(C)c1nc(=O)n(-c2cccc(O)c2)c2cc(Cl)ccc12 [Example 54] | > 6.70
6 | CN(C)c1nc(=O)n(-c2ccccc2)c2c(Cl)c(Cl)ccc12 [Example 42, 7,8-dichloro-4-(dimethylamino)-1-phenylquinazolin-2(1H)-one] | 6.30 to 6.70
7 | CNc1nc(=O)n(-c2nccs2)c2cc(Cl)ccc12 [Example 17, 7-chloro-4-(methylamino)-1-(thiazol-2-yl)-quinazolin-2(1H)-one] | > 6.70
8 | O=c1nc(N2CC(O)C2)c2ccc(Cl)cc2n1-c1ccccc1 [Example 74, 7-chloro-4-(3-hydroxyazetidin-1-yl)-1-phenylquinazolin-2(1H)-one] | > 6.70
9 | CN(c1nc(=O)n(-c2cccc(F)c2)c2cc(Cl)ccc12)C1CC1 [Example 39, 7-chloro-4-(cyclopropylmethylamino)-1-(3-fluorophenyl)hydroquinazolin-2-one] | > 6.70
10 | CNc1nc(=O)n(-c2cccc(CCCO)c2)c2cc(Cl)ccc12 [Example 48, 7-chloro-1-[3-(3-hydroxypropyl)-phenyl]-4-(methylamino)hydro-quinazolin-2-one] | > 6.70
11 | O=c1nc(N2CCCC2)c2ccc(Cl)cc2n1-c1ccccc1 [Example 67, 7-chloro-1-phenyl-4-(pyrrolidin-1-yl)-quinazolin-2(1H)-one] | > 6.70
12 | O=c1nc(N2CCC2)c2ccc(Cl)cc2n1-c1ccccc1 [Example 25, 4-(azetidin-1-yl)-7-chloro-1-phenyl-quinazolin-2(1H)-one] | > 6.70
13 | CNc1nc(=O)n(-c2cncs2)c2cc(Cl)ccc12 [Example 18, 7-chloro-4-(methylamino)-1-(thiazol-5-yl)-quinazolin-2(1H)-one] | > 6.70
14 | CNc1nc(=O)n(-c2cncnc2)c2cc(Cl)ccc12 | > 6.70
15 | CNc1nc(=O)n(-c2cccc(C)c2)c2cc(Cl)ccc12 [Example 55] | > 6.70
16 | O=c1nc(N2CCCCC2)c2ccc(Cl)cc2n1-c1ccccc1 [Example 66, 7-chloro-1-phenyl-4-(piperidin-1-yl)-quinazolin-2(1H)-one] | > 6.70
17 | CN(C)CCNc1nc(=O)n(-c2ccccc2)c2cc(Cl)ccc12 [Example 64, 7-chloro-4-((2-(dimethylamino)ethyl)-amino)-1-phenylquinazolin-2(1H)-one] | 5.00 to 6.00

Next, values leading:

Row | pIC50 | Compound
18 | > 6.70 | CNc1nc(=O)n(-c2ccccc2F)c2cc(Cl)ccc12 [Example 57, 7-chloro-1-(2-fluorophenyl)-4-(methylamino)quinazolin-2(1H)-one]
19 | > 6.70 | CNc1nc(=O)n(-c2cn[nH]c2)c2cc(Cl)ccc12
20 | 5.00 to 6.00 | CN(C)CCN(C)c1nc(=O)n(-c2ccccc2)c2cc(Cl)ccc12 [Example 63, 7-chloro-4-((2-(dimethylamino)ethyl)-(methyl)-amino)-1-phenylquinazolin-2(1H)-one]
21 | > 6.70 | CNc1nc(=O)n(-c2cc(O)cc(F)c2)c2cc(Cl)ccc12
22 | > 6.70 | CNc1nc(=O)n(-c2ccccc2)c2cc(C(F)(F)F)ccc12 [Example 51, 4-(methylamino)-1-phenyl-7-(trifluoro-methyl)-quinazolin-2(1H)-one]
23 | > 6.70 | CN(C)c1nc(=O)n(-c2cccc(C#N)c2)c2cc(Cl)ccc12 [Example 81, 3-[4-(dimethylamino)-7-chloro-2-oxohydroquinazolinyl]benzenecarbo-nitrile]
24 | > 6.70 | CN(C)c1nc(=O)n(-c2ccc(F)cc2)c2cc(Cl)ccc12 [Example 36, 4-(dimethylamino)-7-chloro-1-(4-fluorophenyl)-hydroquinazolin-2-one]
25 | 6.30 to 6.70 | COc1nc(=O)n(-c2ccccc2)c2cc(Cl)ccc12 [Example 62, 7-chloro-4-methoxy-1-phenyl-quinazolin-2(1H)-one]
26 | > 6.70 | CNc1nc(=O)n(-c2ccccc2)c2cc(Cl)c(F)cc12
27 | > 6.70 | CN(C)c1nc(=O)n(-c2cccc(CO)c2)c2cc(Cl)ccc12 [Example 77]
28 | 6.30 to 6.70 | CNc1nc(=O)n(-c2ccccn2)c2cc(Cl)ccc12
29 | 5.00 to 6.00 | O=c1nc(-n2cccn2)c2ccc(Cl)cc2n1-c1ccccc1 [Example 29, 7-chloro-1-phenyl-4-(1H-pyrazol-1-yl)quinazolin-2(1H)-one]
30 | > 6.70 | CNc1nc(=O)n(-c2ccccc2)c2cc(Cl)c(OC)cc12 [Example 73, 7-chloro-6-methoxy-4-(methylamino)-1-phenylquinazolin-2(1H)-one]
31 | > 6.70 | Nc1nc(=O)n(-c2ccccc2)c2cc(Cl)ccc12 [Example 59, 4-amino-7-chloro-1-phenylquinazolin-2(1H)-one]
32 | > 6.70 | CNc1nc(=O)n(-c2ccccc2)c2cc(Cl)ccc12 [Example 2, 7-chloro-4-(methylamino)-1-phenylquinazolin-2(1H)-one]
33 | 6.00 to 6.30 | O=c1nc(NCC(F)F)c2ccc(Cl)cc2n1-c1ccccc1 [Example 31, 7-chloro-4((2,2-difluoroethyl)amino)-1-phenyl-quinazolin-2 (1H)-one]
34 | 6.30 to 6.70 | O=c1nc(NCc2ccccc2)c2ccc(Cl)cc2n1-c1ccccc1 [Example 23, 4-(benzylamino)-7-chloro-1-phenyl-quinazolin-2(1H)-one]
35 | > 6.70 | CN(C)c1nc(=O)n(-c2cccc(NS(C)(=O)=O)c2)c2cc(Cl)ccc12 [Example 52, N-(3-(7-chloro-4-(dimethylamino)-2-oxoquinazolin-1 (2H)-yl)phenyl)-methanesulfonamide]
